In patent US7217413B1, “Use of novel agents inducing cell death in synergy with interferons” (priority 1998, dated 2007):
Residues, ends and D or L forms follow the SMILES beside them. *: point of attachment. Cbz = O=C(OCc1ccccc1)*; CH2F = FC*

Experiments:
REF (T) PML cells [1] = assay: TUNEL test of cell death triggered by PML (ZnCl2 induction); type: cell-based, rat
Experimental: (§1) The REF (T) and MEF (T) cells are rat and mouse embryonic fibroblasts immortalized by an SV4DT expression vector. […] For clonogenicity tests, the cells were transfected with 10 μg of SRαtkneo-PML or SRαkneo on culture dishes 10 cm in diameter and selected with neomycin (500 μg/ml). To obtain inducible clones, a pool of RET (T) cells was cotransfected with the plasmid pKSmMt-PML and a hygromycin resistance vector (DSP-Hygro). The resistant colonies were examined for the expression of PML after four hours of treatment with ZnCl2 (150 μM) and subjected to a second cycle of cloning by limiting dilution. Inducible CHO clones were constructed in a similar manner. The monocytes were prepared according to the method of Estaquier et al., 1997. Etoposide (used at 100 μM for 16 to 24 hours) was obtained from Biomol Research Laboratories, zVAD (benzyloxycarbonyl-Val-Ala-Asp fluoromethyl ketone, used at 250 μg/ml) is marketed by Bachem and rat IFNα by Access BioMedical. The human α-interferon was provided by Schering-Plough. The antibodies against the human PML protein are described in the article by Daniel et al., 1993. The Western blot experiments with the endogenous rat PML protein were carried out with the monoclonal antibody 5E10 which detects both rat PML and human PML.
The cells were treated for 2 hours with 150 μM of ZnCl2 (unless otherwise stated) in the presence or absence of heat-inactivated foetal calf serum, and then the cells were washed and incubated in a ZnCl2-free medium. The TUNEL test was carried out according to the manufacturer's instructions (Boehringer Mannheim, kit for detection of cell death in situ), with the exception of the fixing step (4% formaldehyde in phosphate PBS buffer for 10 minutes). The cellular DNA content was evaluated by incubating for 10 minutes in propidium iodide at 50 μg/ml, in the presence of Rnase A at 100 μg/ml at 4° C. […] The samples were analysed on a FACScan analyser (Lysis II software, Becton Dickinson). […] After centrifugation, 20 μl of supernatant and 180 μl of reaction buffer (100 mM Hepes, pH 7.4, 2% of glycerol, 5 mM DTT, 0.5 mM EDTA, 50 μM DEVD-pNA (Biomol Research Laboratories)) were mixed and the absorbence at 405 nm was measured after incubating for four hours at 37° C. […]
It is known that the execution of programmed cell death involves the proteolytic activation—of caspases which induce the phenotypic changes in apoptosis by cleavage of nuclear and cytoplasmic proteins (Salvesen et al., 1997). […] Unlike etoposide, no significant cleavage of the colorimetric caspase substrates, YVAD-pNa (class 1 caspase, Boehringer Mannheim) and DEVD-pNA (class 3 caspase, Boehringer Mannheim) after induction with PML could be detected (FIG. 2B).

REF (T) PML cells [2] = assay: Kinetics of synchronized cell death after ZnCl2 induction of PML; type: cell-based, rat
Experimental: The cells were treated for 2 hours with 150 μM of ZnCl2 (unless otherwise stated) in the presence or absence of heat-inactivated foetal calf serum, and then the cells were washed and incubated in a ZnCl2-free medium. The TUNEL test was carried out according to the manufacturer's instructions (Boehringer Mannheim, kit for detection of cell death in situ), with the exception of the fixing step (4% formaldehyde in phosphate PBS buffer for 10 minutes). The cellular DNA content was evaluated by incubating for 10 minutes in propidium iodide at 50 μg/ml, in the presence of Rnase A at 100 μg/ml at 4° C. Analysis of the expression of phosphatidylserine on the outer sheet of the cell membranes was carried out using Annexin-V-fluos labelling (Boehringer Mannheim) and a loss of mitochondrial polarity with Rhodamin 123 (molecular probes) according to the manufacturer's instructions. The samples were analysed on a FACScan analyser (Lysis II software, Becton Dickinson). […] After centrifugation, 20 μl of supernatant and 180 μl of reaction buffer (100 mM Hepes, pH 7.4, 2% of glycerol, 5 mM DTT, 0.5 mM EDTA, 50 μM DEVD-pNA (Biomol Research Laboratories)) were mixed and the absorbence at 405 nm was measured after incubating for four hours at 37° C. […]

PML protein = assay: Western blot of PML protein expression and location on nuclear bodies; type: cell-based, rat; conditions: REF (T) cells
Experimental: The REF (T) and MEF (T) cells are rat and mouse embryonic fibroblasts immortalized by an SV4DT expression vector. […] The Western blot experiments with the endogenous rat PML protein were carried out with the monoclonal antibody 5E10 which detects both rat PML and human PML.

Primary monocytes = assay: Survival of primary monocytes exposed to α-interferon; type: cell-based
REF (T) PML cells [3] = assay: TUNEL test of cell death induced by IFNα; type: cell-based, rat; conditions: for cell death evaluated by TUNEL (positive TUNEL signal): with 1 000 U/ml of IFNα
Experimental: as §1
The cells were treated for 2 hours with 150 μM of ZnCl2 (unless otherwise stated) in the presence or absence of heat-inactivated foetal calf serum, and then the cells were washed and incubated in a ZnCl2-free medium. The TUNEL test was carried out according to the manufacturer's instructions (Boehringer Mannheim, kit for detection of cell death in situ), with the exception of the fixing step (4% formaldehyde in phosphate PBS buffer for 10 minutes). The cellular DNA content was evaluated by incubating for 10 minutes in propidium iodide at 50 μg/ml, in the presence of Rnase A at 100 μg/ml at 4° C. Analysis of the expression of phosphatidylserine on the outer sheet of the cell membranes was carried out using Annexin-V-fluos labelling (Boehringer Mannheim) and a loss of mitochondrial polarity with Rhodamin 123 (molecular probes) according to the manufacturer's instructions. The samples were analysed on a FACScan analyser (Lysis II software, Becton Dickinson). For the cleavage of the substrate with caspases, 5×10^6 cells were washed in PBS buffer, and incubated for one hour at 4° C. in 200 μl of lysis buffer (10 mM Hepes, pH 7.4, 2 mM EDTA, 2 mM DTT, 0.1% CHAPS). After centrifugation, 20 μl of supernatant and 180 μl of reaction buffer (100 mM Hepes, pH 7.4, 2% of glycerol, 5 mM DTT, 0.5 mM EDTA, 50 μM DEVD-pNA (Biomol Research Laboratories)) were mixed and the absorbence at 405 nm was measured after incubating for four hours at 37° C. The anti-PARP polyclonal antibody SA-252 is marketed by Biomol Research Laboratories.
The table below represents the cell death, evaluated by TUNEL, of REF (T) PML cells treated for two days with 1 000 U/ml of IFNα and 10^−6 M of As2O3 or of zVAD.

[4] = treated for two days, 10^-6 M of As2O3 or of zVAD

| Compound | positive cells / positive TUNEL signal (REF (T) PML cells [1]; ZnCl2 alone) [%] | time to synchronized cell death of the whole cell population (REF (T) PML cells [2]; 50 μM of ZnCl2) [h] | time to synchronized cell death of the whole cell population (REF (T) PML cells [2]; 150 μM of ZnCl2) | effect on cell death induced by PML (REF (T) PML cells [1]; ZnCl2 induction, FIG. 1C) | effect on apoptosis induced by etoposide (REF (T) PML cells [1]; etoposide-treated cells, FIG. 1C) | positive TUNEL signal (REF (T) PML cells [1]; zVAD and ZnCl2) [%] | levels of expression of PML (PML protein) | time to death of the whole cell population (Primary monocytes; zVAD added with α-interferon) [h] | cell death with zVAD alone (Primary monocytes; zVAD alone after seven days, three cultures out of eleven) | cell death with zVAD alone (Primary monocytes; zVAD alone for 20 days, most of the primary cultures (8/11)) | cell death evaluated by TUNEL (positive TUNEL signal) (REF (T) PML cells [3]; [4]) [%] | cell death evaluated by TUNEL (REF (T) PML cells [3]; without IFNα, treated for two days, 10^-6 M of As2O3 or of zVAD) [%] | time to complete disappearance of the cell culture (Primary monocytes; α-interferon alone (1 000 U/ml)) | kinetics of cell death induction (REF (T) PML cells [3]; compared with ZnCl2 induction) | cell death evaluated by TUNEL (positive TUNEL signal) (REF (T) PML cells [3]; treated for two days, 10^-6 M of As2O3 or of zVAD, listed as α-interferon) [%] |
| --- | --- | --- | --- | --- | --- | --- | --- | --- | --- | --- | --- | --- | --- | --- | --- |
| [Cl-].[Cl-].[Zn+2] [ZnCl2] | 45 | 48 | six | – | – | – | – | – | – | – | – | – | – | – | – |
| COC(=O)C[C@H](NC(=O)[C@H](C)NC(=O)[C@@H](NC(=O)OCc1ccccc1)C(C)C)C(=O)CF [zVAD, benzyloxycarbonyl-Val-Ala-Asp(O-methyl) fluoromethyl ketone] (Cbz-Val-Ala-Asp(OMe)-CH2F) | – | – | – | does not inhibit cell death induced by PML | blocks apoptosis induced by etoposide | 71 | increased | ≤ 24 | induced the death of part of the culture | Little or no cell death | 60 | 5 | – | – | – |
| IFNα | – | – | – | – | – | – | induces rat PML | – | – | – | 42 | – | seven | same kinetics as 50 μM ZnCl2 | 42 |
